This assay concerns the target T1, Atlantic cod androgen receptor alpha (gmAra) LBD (Gadus morhua, UniProt D5FIC7).
T1 sequence (D5FIC7 409-718): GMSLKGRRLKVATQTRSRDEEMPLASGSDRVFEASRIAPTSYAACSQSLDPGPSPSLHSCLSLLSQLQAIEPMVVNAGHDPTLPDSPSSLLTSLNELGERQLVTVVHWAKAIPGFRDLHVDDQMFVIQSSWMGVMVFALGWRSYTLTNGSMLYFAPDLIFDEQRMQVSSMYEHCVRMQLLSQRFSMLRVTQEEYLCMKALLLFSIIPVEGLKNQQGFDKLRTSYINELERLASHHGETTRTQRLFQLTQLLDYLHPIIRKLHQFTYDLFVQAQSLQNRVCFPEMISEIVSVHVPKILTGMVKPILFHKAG
The experiment in a line: Luciferase reporter gene assay, gmAra antagonism (antiandrogenic activity), coexposure with 5 nM testosterone. The format is cell-based. The following applies: BPs 0.003–50 μM with 5 nM testosterone. As to the method:
Ligand activation of gmEra and gmAra was studied with a luciferase reporter gene assay in COS-7 cells transiently transfected with the pCMX-GAL4(DBD)-gmEra(LBD) or pCMX-GAL4(DBD)-gmAra(LBD) plasmid by using the TransIT-LT1 reagent (TransIT-LT1 Transfection Reagent, Mirus). Cells were seeded into 96-well plates (5000 cells/well) and incubated for 24 h before cotransfection with the plasmid mixture (100 ng/well). The plasmid mixture contained GAL4-UAS luciferase reporter plasmid (tk-(MH100)x4 luc), the pCMX-GAL4(DBD)-gmEra(LBD) or pCMX-GAL4(DBD)-gmAra(LBD) receptor plasmids (2:1 reporter:receptor plasmid mass ratio), and a plasmid constitutively producing the β-galactosidase enzyme used for normalization of transfection efficiency (pCMV- β-Gal). […] The maximum DMSO/methanol concentrations in the exposure wells were 0.5% (v/v) in DMEM medium without phenol red (Sigma-Aldrich). After exposure, cells were lysed, and luciferase and beta-galactosidase activities were measured as luminescence and absorbance (420 nm) after the addition of luciferin and ONPG substrates, respectively, using an Enspire Multimode plate reader (PerkinElmer, Waltham, Massachusetts, USA).
The dose–response curves were created using nonlinear regression and the four-parameter logistic fit in Graphpad Prism v.9. *p < 0.05 versus solvent control by ANOVA and Dunnett’s multiple comparison post hoc test.

Consider `Oc1ccc(C2(c3ccc(O)cc3)c3ccccc3-c3ccccc32)cc1` [BPFL], for which the “effect on testosterone-mediated gmAra activity, result in words” value was “significant increases in gmAr activity”.

Values taken from publication PMC11325555, “Interaction of Bisphenol A and Its Analogs with Estrogen and Androgen Receptor from Atlantic Cod (Gadus morhua)” (Environmental Science & Technology, 2024).
